The values that follow are results of earlier work, collected in US12251380B2, “Depot systems comprising cariprazine or salts thereof” (Mapi Pharma Ltd., priority 2022, dated 2025).

Read-outs that look alike come from different tables or passages of the source.

For the data set the following is noted: schizophrenic patients.

As for `CN(C)C(=O)N[C@H]1CC[C@H](CCN2CCN(c3cccc(Cl)c3Cl)CC2)CC1` [Cariprazine, trans-N-{4-[2-[4-(2,3-dichlorophenyl)piperazine-1-yl]ethyl]cyclohexyl}-N′,N′-dimethylurea], under “oral Cariprazine”, the elimination half-life is 2 to 5 days.
Turning to `NC(=O)NC1CCC(CCN2CCN(c3cccc(Cl)c3Cl)CC2)CC1` (centres unmarked) [didesmethyl Cariprazine], for the setting “active metabolite after oral Cariprazine”, the elimination half-life is given as 2-3 weeks.
